Experimental data as given in patent publication US5036083A, “Heterocyclic agents” (ICI Pharma, priority 1988, dated 1991).

Tests used:
5-LO [1] = target: T1, 5-LO (Cavia porcellus, UniProt A0A286X958); experiment: Test (a): in vitro spectrophotometric cell-free enzyme assay, 5-LO isolated from guinea pig neutrophils; type: biochemical; conditions: 5-LO from guinea pig neutrophils
T1 construct: cell free system using 5-LO isolated from guinea pig neutrophils; endogenous in cells; host or cells: guinea pig neutrophils
T1 sequence (A0A286X958 1-674): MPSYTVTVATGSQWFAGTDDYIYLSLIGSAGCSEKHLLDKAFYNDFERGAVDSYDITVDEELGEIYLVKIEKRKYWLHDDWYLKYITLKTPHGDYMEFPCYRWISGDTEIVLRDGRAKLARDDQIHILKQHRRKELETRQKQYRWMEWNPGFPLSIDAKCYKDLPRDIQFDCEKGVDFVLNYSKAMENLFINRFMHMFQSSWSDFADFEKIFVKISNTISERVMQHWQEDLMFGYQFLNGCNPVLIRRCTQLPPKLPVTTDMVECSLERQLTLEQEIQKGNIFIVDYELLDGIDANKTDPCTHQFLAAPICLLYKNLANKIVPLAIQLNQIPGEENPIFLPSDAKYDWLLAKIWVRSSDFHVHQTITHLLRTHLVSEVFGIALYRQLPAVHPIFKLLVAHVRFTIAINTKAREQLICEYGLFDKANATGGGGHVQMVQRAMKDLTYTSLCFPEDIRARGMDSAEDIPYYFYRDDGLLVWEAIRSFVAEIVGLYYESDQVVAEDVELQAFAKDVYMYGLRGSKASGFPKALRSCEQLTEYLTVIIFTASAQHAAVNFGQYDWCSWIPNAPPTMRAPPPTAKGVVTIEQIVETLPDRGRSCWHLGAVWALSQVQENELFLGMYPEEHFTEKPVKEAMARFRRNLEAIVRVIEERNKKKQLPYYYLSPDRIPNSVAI
Description: (a) An in vitro spectrophotometric enzyme assay system, which assesses the inhibitory properties of a test compound in a cell free system using 5-LO isolated from guinea pig neutrophils and as described by D. Aharony and R. L. Stein (J. Biol. Chem., 1986, 261(25), 11512-11519). This test provides a measure of the intrinsic inhibitory properties against soluble 5-LO in an extracellular environment.

5-LO [2] = target: T2, 5-LO (Rattus norvegicus, UniProt P12527); experiment: Test (b): heparinised rat blood challenged with A23187, LTB4 radioimmunoassay; type: cell-based; parameters: incubating a test compound with heparinised rat blood; from tissue; host or cells: heparinised rat blood
T2 sequence (P12527 1-673): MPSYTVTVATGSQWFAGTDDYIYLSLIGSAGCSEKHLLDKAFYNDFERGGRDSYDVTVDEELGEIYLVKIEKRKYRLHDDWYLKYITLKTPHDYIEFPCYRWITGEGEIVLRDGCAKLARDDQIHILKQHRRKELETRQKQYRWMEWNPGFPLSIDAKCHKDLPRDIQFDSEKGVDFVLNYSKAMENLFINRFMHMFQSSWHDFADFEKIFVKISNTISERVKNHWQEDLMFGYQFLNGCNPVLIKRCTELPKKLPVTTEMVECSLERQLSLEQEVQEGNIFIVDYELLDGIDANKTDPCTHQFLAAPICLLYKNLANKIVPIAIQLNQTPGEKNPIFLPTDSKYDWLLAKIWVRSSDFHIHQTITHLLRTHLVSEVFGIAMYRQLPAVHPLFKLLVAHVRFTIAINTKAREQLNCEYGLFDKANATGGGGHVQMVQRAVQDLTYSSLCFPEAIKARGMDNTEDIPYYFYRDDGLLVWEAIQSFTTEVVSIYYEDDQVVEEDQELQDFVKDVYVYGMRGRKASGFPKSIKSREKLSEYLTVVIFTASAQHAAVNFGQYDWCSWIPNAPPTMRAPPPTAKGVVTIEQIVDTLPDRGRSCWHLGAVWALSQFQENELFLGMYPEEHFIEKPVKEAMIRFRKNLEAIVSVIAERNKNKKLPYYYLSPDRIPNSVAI
Procedure: (§1) (b) An in vitro assay system involving incubating a test compound with heparinised rat blood, prior to challenge with the calcium ionophore A23187 and then indirectly measuring the inhibitory effects on 5-LO by assaying the amount of LTB4 using the specific radioimmunoassay described by Carey and Forder (F. Carey and R. A. Forder, Brit. J. Pharmacol. 1985, 84, 34P) which involves the use of a protein-LTB4 conjugate produced using the procedure of Young et alia Prostaglandins, 1983, 26(4), 605-613). The effects of a test compound on the enzyme cyclooxygenase (which is involved in the alternative metabolic pathway for arachidonic acid and gives rise to prostaglandins, thromboxanes and related metabolites) may be measured at the same time using the specific radioimmunoassay for prostaglandin E2 (PGE2) described by Carey and Forder (see above). This test provides an indication of the effects of a test compound against 5-LO and also cyclooxygenase in the presence of blood cells and proteins. It permits the selectivity of the inhibitory effect on 5-LO or cyclooxygenase to be assessed.

cyclooxygenase = target: T3, cyclooxygenase (Rattus norvegicus, UniProt Q63921); experiment: Test (b): heparinised rat blood challenged with A23187, PGE2 radioimmunoassay; type: cell-based
T3 construct: incubating a test compound with heparinised rat blood; from tissue; host or cells: heparinised rat blood
T3 sequence (Q63921 27-602): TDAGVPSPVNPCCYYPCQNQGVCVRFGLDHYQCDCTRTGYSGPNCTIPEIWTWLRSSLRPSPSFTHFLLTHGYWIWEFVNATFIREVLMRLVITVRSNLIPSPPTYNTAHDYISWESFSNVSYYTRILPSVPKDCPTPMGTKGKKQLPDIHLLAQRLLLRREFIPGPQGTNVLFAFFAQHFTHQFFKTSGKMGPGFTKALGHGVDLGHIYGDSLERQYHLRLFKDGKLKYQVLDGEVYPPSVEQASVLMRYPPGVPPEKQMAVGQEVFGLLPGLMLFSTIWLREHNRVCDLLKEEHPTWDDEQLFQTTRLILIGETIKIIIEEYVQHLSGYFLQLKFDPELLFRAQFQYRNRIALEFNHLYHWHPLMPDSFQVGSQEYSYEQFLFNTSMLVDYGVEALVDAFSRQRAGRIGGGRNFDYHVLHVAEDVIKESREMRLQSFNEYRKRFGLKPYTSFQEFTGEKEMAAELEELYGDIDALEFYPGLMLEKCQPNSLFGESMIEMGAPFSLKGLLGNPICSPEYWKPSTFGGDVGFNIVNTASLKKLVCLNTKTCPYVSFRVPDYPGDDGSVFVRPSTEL
Procedure: as §1

5-LO [3] = target: T2, 5-LO; experiment: Test (c): ex vivo assay, oral dosing, blood challenged with A23187, LTB4 radioimmunoassay; type: in vivo; parameters: blood collection, heparinisation, challenge with A23187 and radioimmunoassay of LTB4 and PGE2; from tissue; host or cells: blood of dosed animals, heparinised ex vivo; conditions: A23187 challenge
Procedure: (c) An ex vivo assay system, which is a variation of test b) above, involving administration of a test compound (usually orally as the suspension produced when a solution of the test compound in dimethylsulphoxide is added to carboxymethylcellulose), blood collection, heparinisation, challenge with A23187 and radioimmunoassay of LTB4 and PGE2. This test provides an indication of the bioavailability of a test compound as an inhibitor of 5-LO or cyclooxygenase.

dogs = experiment: Induction of methaemoglobin formation in dogs dosed orally; type: in vivo, dog; conditions: oral, 5 mg/kg
Description: In copending European Application No. 88300281.8 (published 28th Sept., 1988 as EP 0284174 Al) it is disclosed that certain indazolone derivatives are effective as inhibitors of the enzyme 5-LO and thus of leukotriene biosyntheses.

Compound `CCCCCNC(=O)c1cccc2[nH]n(C)c(=O)c12` [Example 5, 1,2-dihydro-2-methyl-4-(N-n-pentylcarbamoyl)-3H-indazol-3-one] has an IC50 (5-LO [1]) of 3.1 µM, an IC50 (5-LO [2]) of 1.4 µM and an IC50 (cyclooxygenase) of 72 µM. For the same compound, the ED50 (5-LO [3]) was 30 to 100 mg/kg.

In the case of `O=c1c2ccccc2[nH]n1Cc1cccnc1` [1,2-dihydro-2-(3-pyridylmethyl) 3H indazol-3-one], the “induction of methaemoglobin formation” value (dogs) is reported as “causes induction of methaemoglobin formation”.
